According to PubChem BioAssay AID1918999 (Molecular Pharmacology Branch, DTP, NCI, 2023):
Where “and” joins values, the source holds several entries; their conditions need not be identical. Equal entries are not always repeated.

Test system: 556581-035-R-J1-PDC complex spheroid growth
Test: Anticancer human tumor 556581-035-R-J1-PDC patient-derived ovarian carcinoma cell line growth inhibition [AhR]
Details: for viability, T/C: stronger effect = lower value
Description: Multicellular complex tumor spheroid response to aryl hydrocarbon receptor antagonists in combination with a variety of drugs and investigational agents in selected tumor cell lines
The current study was undertaken to assess response to aryl hydrocarbon receptor antagonists in combination with standard-of-care drugs and investigational agents in solid tumor complex spheroid models. Complex spheroids include a stromal component modeled by human endothelial cells (HUVEC) and fibroblasts modeled by human mesenchymal stem cells (MSCs). The concentration ranges selected for each drug and investigational agent were based upon clinically achievable concentrations if the clinical Cmax of the agent was known.
Compounds. The drugs and investigational agents: BAY 2416964 (NSC825713), GNF351 (NSC835774), CH-223191 (NSC835775), CPI-455 (NSC825282), aza-TdCyd (NSC777586), decitabine (NSC127716), belinostat (NSC758774), entinostat (NSC756642), pevonedistat (NSC761192), tazemetostat (NSC777109), talazoparib (NSC765396), olaparib (NSC753686), selinexor (NSC780203), nedisertib (M3814, NSC802822), bortezomib (NSC756655), venetoclax (NSC766270), doxorubicin (NSC123127), elimusertib (BAY189344, NSC800525), ceralasertib (AZD6738, NSC777638), TAK-243 (NSC785004), alisertib (NSC759677), etoposide (NSC141540), topotecan (NSC609699), eribulin (NSC707389), gemcitabine (NSC613327), carboplatin (NSC241240), cisplatin (NSC119875), and SN-38 (NSC673596) were obtained from the National Cancer Institute (NCI) Developmental Therapeutics Program Chemical Repository (32). The FDA-approved anticancer drug set is available from the Developmental Therapeutics Program at https://dtp.cancer.gov/organization/dscb/obtaining/available plates.htm. […] The stock solutions were prepared in dimethyl sulfoxide (DMSO, Sigma-Aldrich, St. Louis, MO, cat. D2650), except for the platinum compounds which were prepared in saline (Quality Biological, Gaithersburg, MD, cat. 114-055-101), at 800-fold the tested concentration and stored at -70 degrees C prior to their use. All drugs and investigational agents were tested over a range starting from a high concentration at or near the clinical Cmax and decreasing in half-log increments. If the clinical Cmax for an agent had not been determined, the highest concentration tested was 10 microM (Table 1).
Cell Culture. All cells were maintained in an incubator at 37 degrees C and 5% CO2 with 95% humidity. The PDC lines were cultured according to standard operating procedures established by the NCI PDMR (https://pdmr.cancer.gov). Briefly, all PDCs were thawed and cultured in Matrigel-coated flasks prepared with a working solution of 1X Ham's F-12 nutrient mix, without supplementation (Invitrogen, Waltham, MA, cat. 11765054), 100 U/mL penicillin-streptomycin (Invitrogen, cat. 15140122), and 2.5% Matrigel (Corning Inc., Corning, NY, cat. 354248) for the first three passages. All PDCs were cultured in complete DMEM/F-12 media containing advanced DMEM/F-12 (Invitrogen, cat. 12634028), 4.9% defined fetal bovine serum, heat inactivated (HyClone Laboratories Inc., Logan, UT, cat. SH30070.03HI), 389 ng/mL hydrocortisone (Sigma-Aldrich, cat. H4001), 9.7 ng/mL human EGF recombinant protein (Invitrogen, cat. PHG0313), 23.4 microg/mL adenine (Sigma-Aldrich, cat. A2786), 97.3 U/mL penicillin-streptomycin (Invitrogen, cat. 15140122), 1.9 mM L-glutamine (Invitrogen, cat. 25030081), and 9.7 microM Y-27632 dihydrochloride (Tocris Bioscience, Bristol, United Kingdom, cat. 1254). The PDCs were cultured in complete DMEM/F12 media without 10 microM Y-27632 dihydrochloride for at least two passages prior to the screen. The established cell lines NCI-H1341 and […] were cultured in DMEM/F-12, HEPES (Invitrogen, cat. 11330032), 5% defined fetal bovine serum (HyClone Laboratories Inc., cat. SH30070.03), ITS premix universal culture supplement [insulin (5 microg/mL), transferrin (5 microg/mL), and selenious acid (5 ng/mL)] […]
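For viability, T/C in this document: compound exposure lasted 7 days; 100% = DMSO vehicle control growth.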

For CC(C)c1c(-c2ccccc2)nc2c(C#N)c[nH]n2c1=O, the viability, T/C (compound 0.0316 µM) was 102% and 99.4% and 99.2%, the viability, T/C (compound 0.1 µM) was 105% and 102% and 98.3% and the viability, T/C (compound 0.316 µM) was 92.7% and 106% and 104%. The viability, T/C (compound 1 µM) was 101% and 106% and 99%, the viability, T/C (compound 3.16 µM) was 95.7% and 110% and 93.8% and the viability, T/C (compound 10 µM) was 86.8% and 94.4% and 83.1%. For the same compound, the IC50 (curve of compound) was over 10 µM.
For CC(CO)NC(=O)c1cc(-c2ccc(Cl)cc2)nn(-c2cnn(C)c2)c1=O (stereo unspecified), the viability, T/C (compound 0.1 µM) was 98.9% [middle of 20 runs] and the IC50 (compound alone, run of 05/31/2022) was over 10 µM.
With CC1(C)CCC(CN2CCN(c3ccc(C(=O)NS(=O)(=O)c4ccc(NCC5CCOCC5)c([N+](=O)[O-])c4)c(Oc4cnc5[nH]ccc5c4)c3)CC2)=C(c2ccc(Cl)cc2)C1 the viability, T/C (compound 0.0316 µM) was 98.3% and 100% and 107%, the viability, T/C (compound 0.1 µM) was 102% and 104% and 108% and the viability, T/C (compound 0.316 µM) was 88.4% and 106% and 96.5%. The viability, T/C (compound 1 µM) was 90.5% (2×) and 107%, the viability, T/C (compound 3.16 µM) was 97.1% and 101% and 97.2% and the viability, T/C (compound 10 µM) was 75% and 79.2% and 73.8%. It also gave an IC50 (curve of compound) of over 10 µM.
For CC1COCCN1c1cc(C2(S(C)(=N)=O)CC2)nc(-c2ccnc3[nH]ccc23)n1 (stereo unspecified), the viability, T/C (compound 0.0316 µM) was 104% and 101% and 99.6%, the viability, T/C (compound 0.1 µM) was 103% and 105% and 107% and the viability, T/C (compound 0.316 µM) was 96.5% and 102% and 92.8%. The viability, T/C (compound 1 µM) was 86.3% and 92.2% and 88.4%, the viability, T/C (compound 3.16 µM) was 84.8% (2×) and 74.1% and the viability, T/C (compound 10 µM) was 59.5% and 60.3% and 57.7%. For the same compound, the IC50 (curve of compound) was over 10 µM.
In the case of COc1cc(Nc2ncc3c(n2)-c2ccc(Cl)cc2C(c2c(F)cccc2OC)=NC3)ccc1C(=O)O, the viability, T/C (compound 0.0316 µM) is reported as 81.1% and 79.8% and 91.3%, the viability, T/C (compound 0.1 µM) is reported as 75% and 75.9% and 76% and the viability, T/C (compound 0.316 µM) is reported as 68.9% and 62.2% and 64.4%. For the same compound, the viability, T/C (compound 1 µM) was 79.5% and 64.8% and 63%, the viability, T/C (compound 3.16 µM) was 62.2% and 61.8% and 58.2% and the viability, T/C (compound 10 µM) was 54% and 52% and 52.1%. For the same compound, the IC50 (curve of compound) was over 10 µM.
With COc1ccc([C@@H](O)c2cc(-c3ncnc4cc(N5CCOCC5)ccc34)c(F)cc2Cl)nn1 the viability, T/C (compound 0.0316 µM) was 96.5% and 101% and 108%, the viability, T/C (compound 0.1 µM) was 106% and 98.1% and 104% and the viability, T/C (compound 0.316 µM) was 88.7% and 93.8% and 94.7%. The viability, T/C (compound 1 µM) was 76.4% and 70% and 71.3%, the viability, T/C (compound 3.16 µM) was 58.4% and 59.2% and 52.1% and the viability, T/C (compound 10 µM) was 45.5% and 37.5% and 38.9%. For the same compound, the IC50 (curve of compound) was 6.68 µM and 4.7 µM and 3.46 µM.
With Cc1ccccc1N=Nc1ccc(NC(=O)c2ccnn2C)c(C)c1 the viability, T/C (compound 1 µM) was 99.6% [middle of 20 runs] and the IC50 (compound alone, run of 06/14/2022) was over 10 µM.
With Cc1cncc(-c2nc(NCCc3c[nH]c4ccccc34)c3ncn(C(C)C)c3n2)c1 the viability, T/C (compound 0.316 µM) was 103% [middle of 20 runs], the viability, T/C (compound 10 µM) was 83.6% [middle of 20 runs] and the IC50 (compound alone, run of 06/06/2022) was over 10 µM.
For NS(=O)(=O)OCC1CC(n2ccc3c(NC4CCc5ccccc54)ncnc32)CC1O (stereo unspecified), the viability, T/C (compound 0.0316 µM) was 100% and 99.4% and 89%, the viability, T/C (compound 0.1 µM) was 109% and 118% and 98.8% and the viability, T/C (compound 0.316 µM) was 100% and 104% and 111%. The viability, T/C (compound 1 µM) was 90% and 108% and 103%, the viability, T/C (compound 3.16 µM) was 88% and 106% and 113% and the viability, T/C (compound 10 µM) was 73.4% and 86.2% and 81.5%. The IC50 (curve of compound) was over 10 µM.
With O=C(C=Cc1cccc(S(=O)(=O)Nc2ccccc2)c1)NO the viability, T/C (compound 0.0316 µM) was 104% and 98.7% and 101%, the viability, T/C (compound 0.1 µM) was 105% and 99.7% and 84.2% and the viability, T/C (compound 0.316 µM) was 85.4% and 76.4% and 76.7%. For the same compound, the viability, T/C (compound 1 µM) was 54.8% and 58.9% and 56.1%, the viability, T/C (compound 3.16 µM) was 25.9% and 28.1% and 21.8% and the viability, T/C (compound 10 µM) was 3.85% and 5.28% and 4.17%. For the same compound, the IC50 (curve of compound) was 1.25 µM and 1.33 µM and 1.11 µM.
